# Laboratory results published in US20060293315A1, “Intermediates of novel heterocyclic compounds having antibacterial activity and process for their preparation” (Dr. Reddy's Laboratories Ltd., priority 2001, published 2006).
# Assays:
# [1] = system: Staphylococcus aureus 035 S (ATCC 29213); test: MIC by broth microdilution, Staphylococcus aureus 035 S; type: cell-based; details: ATCC29213, DRCC 035, S, broth microdilution in MHB, read-out: Antimicrobial Screening (MIC) Staphylococcus aureus 035 S
# Protocol: (§1) Minimum Inhibiton Concentrations (MICs) were determined by broth microdilution technique as per the guidelines prescribed in the fifth edition of Approved Standards, NCCLS document M7-A5 Vol 20-No 2, 2000 Villinova, Pa.
# (§2) Initial stock solution of the test compound was prepared in DMSO. Subsequent two fold dilutions were carried out in sterile Mueller Hinton Broth (Difco) (MHB).
# (§3) Frozen cultures stocks were inoculated into 50 ml sterile MHB in 250 ml Erlyn Meyer flasks.
# (§4) Composition of MHB is as follows:
# (§5) Flasks were incubated for 4 to 5 h at 35° C. on a rotary shaker at 150 rpm. Inoculum was prepared by diluting the culture in sterile MHB to obtain a turbidity of 0.5 McFarland standard. This corresponds to 1-2×10^8 CFU/ml. The stock was further diluted in sterile broth to obtain 1-2×10^6 CFU/ml. 50 μl of the above diluted inoculum was added from 1-10 wells. The plates were incubated overnight at 37° C.
# [2] = system: Enterococcus sp 153 R (Enterococcus faecalis NCTC 12201); test: MIC by broth microdilution, Enterococcus sp 153 R; type: cell-based; details: NCTC12201, DRCC 153, R, broth microdilution in MHB, read-out: Antimicrobial Screening (MIC) Enterococcus sp 153 R
# Protocol: as §1, §2, §3, §4, §5
# [3] = system: Staphylococcus aureus 213 Smith S (ATCC 49951); test: MIC by broth microdilution, Staphylococcus aureus 213 Smith S; type: cell-based; details: ATCC49951, DRCC 213, Smith S, broth microdilution in MHB, read-out: Antimicrobial Screening (MIC) Staphylococcus aureus 213 Smith S
# Protocol: as §1, §2, §3, §4, §5
# [4] = system: Enterococcus sp 034 S (Enterococcus faecalis ATCC 29212); test: MIC by broth microdilution, Enterococcus sp 034 S; type: cell-based; details: ATCC29212, DRCC 034, S, broth microdilution in MHB, read-out: Antimicrobial Screening (MIC) Enterococcus sp 034 S
# Protocol: as §1, §2, §3, §4, §5
# [5] = system: Staphylococcus aureus 019 MRSA (ATCC 33591); test: MIC by broth microdilution, Staphylococcus aureus 019 MRSA; type: cell-based; details: DRCC 019, MRSA, broth microdilution in MHB, read-out: Antimicrobial Screening (MIC) Staphylococcus aureus 019 MRSA
# Protocol: as §1, §2, §3, §4, §5
# [6] = system: H. influenzae 432 (Haemophilus influenzae ATCC 49247); test: MIC by broth microdilution, H. influenzae 432; type: cell-based; details: ATCC49247, DRCC 432, broth microdilution in MHB, read-out: Antimicrobial Screening (MIC) H. influenzae 432
# Protocol: as §1, §2, §3, §4, §5
# [7] = system: M. catarrhalis 300 (Moraxella catarrhalis ATCC 25238); test: MIC by broth microdilution, M. catarrhalis 300; type: cell-based; details: ATCC25238, DRCC 300, broth microdilution in MHB, read-out: Antimicrobial Screening (MIC) M. catarrhalis 300
# Protocol: as §1, §2, §3, §4, §5
# [8] = system: Enterococcus sp 154 R (Enterococcus faecium NCTC 12202); test: MIC by broth microdilution, Enterococcus sp 154 R; type: cell-based; details: NCTC12202, DRCC 154, R, broth microdilution in MHB, read-out: Antimicrobial Screening (MIC) Enterococcus sp 154 R
# Protocol: as §1, §2, §3, §4, §5
# Mycobacterium MTCC 006 = test: MIC by broth microdilution, Mycobacterium MTCC 006; type: cell-based; details: MTCC006, broth microdilution in MHB, read-out: Antimicrobial Screening (MIC) Mycobacterium MTCC 006
# Protocol: as §1, §2, §3, §4, §5
# Salmorella TA 97 = test: MIC by broth microdilution, Salmorella TA 97; type: cell-based; details: read-out: Antimicrobial Screening (MIC) Salmorella TA 97
# Protocol: as §1, §2, §3, §4, §5
# [9] = system: H. influenzae 529 (Haemophilus influenzae ATCC 9006); test: MIC by broth microdilution, H. influenzae 529; type: cell-based; details: ATCC9006, DRCC 529, broth microdilution in MHB, read-out: Antimicrobial Screening (MIC) H. influenzae 529
# Protocol: as §1, §2, §3, §4, §5
# [10] = system: H. influenzae 433 (Haemophilus influenzae ATCC 49766); test: MIC by broth microdilution, H. influenzae 433; type: cell-based; details: ATCC49766, DRCC 433, broth microdilution in MHB, read-out: Antimicrobial Screening (MIC) H. influenzae 433
# Protocol: as §1, §2, §3, §4, §5
Compound,MIC [1] [µg/mL],MIC [2] [µg/mL],MIC [3] [µg/mL],MIC [4] [µg/mL],MIC [5] [µg/mL],MIC [6] [µg/mL],MIC [7] [µg/mL],MIC [8] [µg/mL],MIC (Mycobacterium MTCC 006) [µg/mL],MIC (Salmorella TA 97) [µg/mL],MIC [9] [µg/mL],MIC [10] [µg/mL],melting point [°C]
COC(=S)NC[C@H]1CN(c2cc(F)c(N3CC(=O)N(C)C3)c(F)c2)C(=O)O1 [Example 164],0.5,0.5,0.5,0.5,0.25,8,8,0.5,4,16,16,16,–
CCCOC(=S)NC[C@H]1CN(c2cc(F)c(N3CNC(=O)C3)c(F)c2)C(=O)O1 [Example 165],1,2,1,2,1,> 32,> 32,2,32,32,> 32,> 32,186 to 188
CCOC(=S)NC[C@H]1CN(c2cc(F)c(N3CNC(=O)C3)c(F)c2)C(=O)O1 [Example 166],0.5,1,0.5,1,0.5,> 32,32,1,32,32,> 32,> 32,178 to 180
CC(C)OC(=S)NC[C@H]1CN(c2cc(F)c(N3CNC(=O)C3)c(F)c2)C(=O)O1 [Example 167],2,4,2,8,2,> 32,> 32,8,32,32,> 32,> 32,176 to 178
COC(=S)NC[C@H]1CN(c2cc(F)c(N3CC(=O)N(CC(=O)OC(C)(C)C)C3)c(F)c2)C(=O)O1 [Example 168],2,1,2,2,2,–,–,2,32,32,–,–,–
COC(=O)CN1CN(c2c(F)cc(N3C[C@H](CNC(=S)OC)OC3=O)cc2F)CC1=O [Example 169],2,0.5,1,0.5,1,–,–,1,8,32,–,–,–
